Assay results as given in the supplement of paper PMC11699113.

Tested on: ED cells (E. derm NBM-6, ATCC CCL-57)
Assay: cell viability (ATP, CellTiter-Glo) relative to untreated control (fraction of control); higher = less cytotoxic

CC(C)CN(C[C@@H](OP(=O)(O)O)[C@H](Cc1ccccc1)NC(=O)O[C@H]1CCOC1)S(=O)(=O)c1ccc(N)cc1 [fosamprenavir]
cell viability
Details | 0.03 µM | 0.06 µM | 0.125 µM | 0.25 µM | 0.5 µM | 2 µM | 5 µM | 10 µM | 20 µM | 32 µM
incubation time: 1h | 1.1 | 1.13 | 1.11 | 1.11 | 1.11 | 1.1 | 1.1 | 1.11 | 1.1 | 1.08
incubation time: 24h | 1.01 | 1.01 | 1.01 | 1 | 0.994 | 1 | 0.979 | 0.978 | 0.978 | 0.949
incubation time: 72h | 1.08 | 1.08 | 1.08 | 1.08 | 1.08 | 1.08 | 1.04 | 1.03 | 1 | 0.953
incubation time: 144h | 1.02 | 1.04 | 1.04 | 1.06 | 1.05 | 1.05 | 1.04 | 1.02 | 0.993 | 0.957

Cc1cc(C#N)cc(C)c1Oc1nc(Nc2ccc(C#N)cc2)nc(N)c1Br [etravirine]
cell viability
Details | 0.5 µM | 2 µM | 5 µM | 10 µM | 25 µM | 50 µM | 80 µM | 100 µM | 200 µM | 300 µM
incubation time: 1h | 1.03 | 1.02 | 0.959 | 0.693 | 0.424 | 0.372 | 0.346 | 0.329 | 0.328 | 0.322
incubation time: 24h | 1.06 | 1.02 | 1.04 | 0.986 | 0.866 | 0.817 | 0.679 | 0.674 | 0.413 | 0.249
incubation time: 72h | 1.01 | 0.978 | 0.953 | 0.894 | 0.829 | 0.796 | 0.75 | 0.723 | 0.541 | 0.412
incubation time: 144h | 1 | 0.994 | 0.97 | 0.927 | 0.871 | 0.835 | 0.784 | 0.775 | 0.626 | 0.525

O=C1Nc2ccc(Cl)cc2[C@@](C#CC2CC2)(C(F)(F)F)O1 [efavirenz]
cell viability
Details | 0.5 µM | 2 µM | 5 µM | 10 µM | 20 µM | 40 µM | 50 µM | 75 µM | 100 µM | 150 µM
incubation time: 1h | 1.05 | 1.04 | 1.02 | 0.985 | 0.902 | 0.523 | 0.35 | 0.164 | 0.0891 | 0.0482
incubation time: 24h | 0.985 | 0.989 | 1.01 | 0.999 | 0.979 | 0.618 | 0.194 | 0.00645 | 0.0077 | 0.00431
incubation time: 72h | 1.04 | 1.04 | 1.04 | 1.03 | 1.01 | 0.907 | 0.659 | 0.0635 | 0.0176 | 0.00453
incubation time: 144h | 1.02 | 1.02 | 1.02 | 1 | 0.969 | 0.862 | 0.574 | 0.128 | 0.113 | 0.00579
